{"source": "patent US12059420B2", "about": "(BRISTOL-MYERS SQUIBB COMPANY, priority 2018, dated 2024)", "note": "Counter-ions that a name gives are not always drawn.", "data": [{"biological_target": "T1, human IDO1 (Homo sapiens, UniProt P14902)", "T1 construct": "expressed in transfected cells", "T1 sequence (P14902 whole entry)": "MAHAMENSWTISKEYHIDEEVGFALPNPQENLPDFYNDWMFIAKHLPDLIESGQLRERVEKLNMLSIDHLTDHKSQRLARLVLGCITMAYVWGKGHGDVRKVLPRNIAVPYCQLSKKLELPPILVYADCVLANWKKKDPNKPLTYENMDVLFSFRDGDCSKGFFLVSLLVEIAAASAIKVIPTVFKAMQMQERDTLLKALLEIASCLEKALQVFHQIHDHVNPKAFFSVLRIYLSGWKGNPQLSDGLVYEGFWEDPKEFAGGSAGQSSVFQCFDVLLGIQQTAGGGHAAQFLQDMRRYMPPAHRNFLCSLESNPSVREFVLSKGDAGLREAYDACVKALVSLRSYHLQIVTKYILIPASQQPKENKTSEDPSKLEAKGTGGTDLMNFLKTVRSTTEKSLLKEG", "test": "IDO inhibition assay in HEK293 cells stably expressing human IDO1 (kynurenine production, Ehrlich reagent, absorbance 490 nm)", "assay_type": "cell-based", "settings": "20 hours incubation with compound, 500 nM reference standard = 100% inhibition, read-out: IDO1 HEK Human IC50", "protocol": "HEK293 cells were transfected with a pCDNA-based mammalian expression vector harboring human IDO1 cDNA (NM 002164.2) by electroporation. They were cultured in medium (DMEM with 10% FBS) containing 1 mg/ml G418 for two weeks. Clones of HEK293 cells that stably expressed human IDO1 protein were selected and expanded for IDO inhibition assay.\nThe human IDO1/HEK293 cells were seeded at 10,000 cells per 50 μL per well with RPMI/phenol red free media contains 10% FBS in a 384-well black wall clear bottom tissue culture plate (Matrix Technologies LLC) 100 nL of certain concentration of compound was then added to each well using ECHO liquid handling systems. The cells were incubated for 20 hours in 37° C. incubator with 5% CO2.\nThe compound treatments were stopped by adding trichloroacetic acid (Sigma-Aldrich) to a final concentration at 0.2%. The cell plate was further incubated at 50° C. for 30 minute. The equal volume supernatant (20 μL) and 0.2% (w/v) Ehrlich reagent (4-dimethylaminobenzaldehyde, Sigma-Aldrich) in glacial acetic acid were mixed in a new clear bottom 384-well plate. This plate was then incubated at RT for 30 minute. The absorbance at 490 nm was measured on Envision plate reader.\nCompound IC50 values were calculated using the counts of 500 nM of a reference standard treatment as one hundred percent inhibition, and counts of no compound but DMSO treatment as zero percent inhibition.", "units": {"IC50": "nM"}, "values": [{"smiles": "CCCN(Cc1ccccc1)c1cc(Nc2nc(-c3ccccc3)cs2)cc(-c2ccccc2-c2nnn[nH]2)n1", "note": "[Example 59, 6-(2-(1H-tetrazol-5-yl)phenyl)-N2-benzyl-N4-(4-phenylthiazol-2-yl)-N2-propylpyridine-2,4-diamine]", "IC50": 139}, {"smiles": "CCCN(Cc1ccccc1)c1cc(Nc2nnc(C)s2)cc(-c2ccccc2-c2nnn[nH]2)n1", "note": "[Example 60, 6-(2-(1H-tetrazol-5-yl)phenyl)-N2-benzyl-N4-(5-methyl-1,3,4-thiadiazol-2-yl)-N2-propylpyridine-2,4-diamine]", "IC50": 831}, {"smiles": "CCCN(Cc1ccccc1)c1cc(Nc2ccn(C)n2)cc(-c2ccccc2-c2nnn[nH]2)n1", "note": "[Example 61, 6-(2-(1H-tetrazol-5-yl)phenyl)-N2-benzyl-N4-(1-methyl-1H-pyrazol-3-yl)-N2-propylpyridine-2,4-diamine]", "IC50": 446}, {"smiles": "CCCN(Cc1ccccc1)c1cc(Nc2nc3ccc(F)cc3s2)cc(-c2ccccc2-c2nnn[nH]2)n1", "note": "[Example 62, 6-(2-(1H-tetrazol-5-yl)phenyl)-N2-benzyl-N4-(6-fluorobenzo[d]thiazol-2-yl)-N2-propylpyridine-2,4-diamine]", "IC50": 56.8}, {"smiles": "CCCN(CC1CC1)c1nc(NC(=O)Cc2ccc(C)cc2)cc(-c2ccccc2-c2nnn[nH]2)n1", "note": "[Example 64, N-(6-(2-(1H-tetrazol-5-yl)phenyl)-2-((cyclopropylmethyl)(propyl)amino)pyrimidin-4-yl)-2-(p-tolyl)acetamide, TFA]", "IC50": 161}, {"smiles": "CCCN(CC1CC1)c1nc(NC(=O)Nc2ccc(F)cc2)cc(-c2ccccc2-c2nnn[nH]2)n1", "note": "[Example 65, 1-(6-(2-(1H-tetrazol-5-yl)phenyl)-2-((cyclopropylmethyl)(propyl)amino)pyrimidin-4-yl)-3-(4-fluorophenyl)urea, TFA]", "IC50": 4530}, {"smiles": "CCCN(CC1CC1)c1nc(NC(=O)Nc2ccc(C)cc2)cc(-c2ccccc2-c2nnn[nH]2)n1", "note": "[Example 66, 1-(6-(2-(1H-tetrazol-5-yl)phenyl)-2-((cyclopropylmethyl)(propyl)amino)pyrimidin-4-yl)-3-(p-tolyl)urea, TFA]", "IC50": 440}, {"smiles": "CCCN(CC1CC1)c1nc(NC(=O)Nc2ccc(OC(F)(F)F)cc2)cc(-c2ccccc2-c2nnn[nH]2)n1", "note": "[Example 67, 1-(6-(2-(1H-tetrazol-5-yl)phenyl)-2-((cyclopropylmethyl) (propyl)amino)pyrimidin-4-yl)-3-(4-(trifluoromethoxy)phenyl)urea]", "IC50": 2470}, {"smiles": "Cc1ccc(CC(=O)Nc2cc(-c3ccccc3-c3nnn[nH]3)nc(N3CCCc4ccccc43)c2)cc1", "note": "[Example 68, N-(2-(2-(1H-tetrazol-5-yl)phenyl)-6-(3,4-dihydroquinolin-1(2H)-yl)pyridin-4-yl)-2-(p-tolyl)acetamide, TFA]", "IC50": 324}, {"smiles": "CC(C)CN(Cc1ccccc1)c1cc(NC(=O)Nc2ccc(F)cc2)cc(-c2ccccc2-c2nnn[nH]2)n1", "note": "[Example 69, 1-(2-(2-(1H-tetrazol-5-yl)phenyl)-6-(benzyl(isobutyl)amino)pyridin-4-yl)-3-(4-fluorophenyl)urea, TFA]", "IC50": 134}, {"smiles": "CCCN(CC1CC1)c1cc(NC(=O)Cc2ccc(F)cc2F)cc(-c2ccccc2-c2nnn[nH]2)n1", "note": "[Example 70, N-(2-(2-(1H-tetrazol-5-yl)phenyl)-6-((cyclopropylmethyl)(propyl)amino)pyridin-4-yl)-2-(2,4-difluorophenyl)acetamide, TFA]", "IC50": 422}, {"smiles": "CCCN(Cc1ccccc1)c1cc(NC(=O)Nc2ccc(F)cc2F)cc(-c2ccccc2-c2nnn[nH]2)n1", "note": "[Example 71, 1-(2-(2-(1H-tetrazol-5-yl)phenyl)-6-(benzyl(propyl)amino)pyridin-4-yl)-3-(2,4-difluorophenyl)urea, TFA]", "IC50": 32.2}, {"smiles": "CCCN(Cc1ccccc1)c1cc(NC(=O)Nc2ccc(Cl)cc2F)cc(-c2ccccc2-c2nnn[nH]2)n1", "note": "[Example 72, 1-(2-(2-(1H-tetrazol-5-yl)phenyl)-6-(benzyl(propyl)amino)pyridin-4-yl)-3-(4-chloro-2-fluorophenyl)urea, TFA]", "IC50": 8.5}, {"smiles": "CCCN(CC1CC1)c1cc(NC(=O)Cc2ccc(F)cc2)cc(-c2ccccc2-c2nnn[nH]2)n1", "note": "[Example 73, N-(2-(2-(1H-tetrazol-5-yl)phenyl)-6-((cyclopropylmethyl)(propyl)amino)pyridin-4-yl)-2-(4-fluorophenyl)acetamide, TFA]", "IC50": 334}, {"smiles": "CC(C)CN(Cc1ccccc1)c1cc(Nc2ncc(C(F)(F)F)cn2)cc(-c2ccccc2-c2nnn[nH]2)n1", "note": "[Example 74, 6-(2-(1H-tetrazol-5-yl)phenyl)-N2-benzyl-N2-isobutyl-N4-(5-(trifluoromethyl)pyrimidin-2-yl)pyridine-2,4-diamine, TFA]", "IC50": 75.6}, {"smiles": "CCCN(Cc1ccc(F)cc1)c1cc(NC(=O)Cc2ccc(C)cc2F)cc(-c2ccccc2-c2nnn[nH]2)n1", "note": "[Example 75, N-(2-(2-(1H-tetrazol-5-yl)phenyl)-6-((4-fluorobenzyl)(propyl)amino)pyridin-4-yl)-2-(2-fluoro-4-methylphenyl)acetamide, TFA]", "IC50": 27.9}, {"smiles": "Cc1ccc(CC(=O)Nc2cc(-c3ccccc3-c3nnn[nH]3)nc(N3CCN(Cc4ccccc4)C(=O)C3)c2)cc1", "note": "[Example 76, N-(2-(2-(1H-tetrazol-5-yl)phenyl)-6-(4-benzyl-3-oxopiperazin-1-yl)pyridin-4-yl)-2-(p-tolyl)acetamide, TFA]", "IC50": 998}, {"smiles": "Cc1ccc(CC(=O)Nc2cc(-c3ccccc3-c3nnn[nH]3)nc(N(CC(C)C)C3CCOCC3)c2)cc1", "note": "[Example 77, N-(2-(2-(1H-tetrazol-5-yl)phenyl)-6-(isobutyl(tetrahydro-2H-pyran-4-yl)amino)pyridin-4-yl)-2-(p-tolyl)acetamide, TFA]", "IC50": 2090}, {"smiles": "Cc1ccc(NC(=O)Nc2cc(-c3ccccc3-c3nnn[nH]3)nc(N(Cc3ccc(F)cc3)CC(C)C)c2)cc1", "note": "[Example 78, 1-(2-(2-(1H-tetrazol-5-yl)phenyl)-6-((4-fluorobenzyl)(isobutyl)amino)pyridin-4-yl)-3-(p-tolyl)urea, TFA]", "IC50": 8.2}, {"smiles": "Cc1ccc(CC(=O)Nc2cc(-c3ccccc3-c3nnn[nH]3)nc(N(Cc3ccccc3)CC(C)C)c2)c(F)c1", "note": "[Example 79, N-(2-(2-(1H-tetrazol-5-yl)phenyl)-6-(benzyl(isobutyl)amino)pyridin-4-yl)-2-(2-fluoro-4-methylphenyl)acetamide, TFA]", "IC50": 18.3}, {"smiles": "CC(C)CN(Cc1ccccc1)c1cc(NC(=O)Cc2ccc(F)cc2)cc(-c2ccccc2-c2nnn[nH]2)n1", "note": "[Example 80, N-(2-(2-(1H-tetrazol-5-yl)phenyl)-6-(benzyl(isobutyl)amino)pyridin-4-yl)-2-(4-fluorophenyl)acetamide, TFA]", "IC50": 350}, {"smiles": "CCCN(CC1CC1)c1cc(NC(=O)Cc2ccc(C)cc2F)cc(-c2ccccc2-c2nnn[nH]2)n1", "note": "[Example 82, N-(2-(2-(1H-tetrazol-5-yl)phenyl)-6-((cyclopropylmethyl)(propyl)amino)pyridin-4)-2-(2-fluoro-4-methylphenyl)acetamide, TFA]", "IC50": 731}, {"smiles": "CCCN(CC1CC1)c1cc(NC(=O)Nc2ccc(Cl)cc2Cl)cc(-c2ccccc2-c2nnn[nH]2)n1", "note": "[Example 83, 1-(2-(2-(1H-tetrazol-5-yl)phenyl)-6-((cyclopropylmethyl)(propyl)amino)pyridin-4-yl)-3-(2,4-dichlorophenyl)urea, TFA]", "IC50": 158}, {"smiles": "CCCN(CC1CC1)c1cc(Nc2ncc(C(F)(F)F)cn2)cc(-c2ccccc2-c2nnn[nH]2)n1", "note": "[Example 84]", "IC50": 373}]}]}
